US20230157935A1, “GADUSOL-CONTAINING SUNSCREEN FORMULATIONS” (Arcaea, LLC, priority 2021, published 2023)

What was measured:
Comet assay = type: cell-based
Source text: (§1) The amount of gadusol incorporated to provide the intended in vivo sunscreen SPF boosting activity can be from about 0.25, 0.50, 0.75, 1.0, 1.25, 1.50, 1.75, or 2.0% (w/w) in the sunscreen formulation that includes a physical/inorganic sunscreen active material, where any value can form an upper or lower endpoint, as appropriate. Still further, the amount of gadusol in the sunscreen formulation can be from about 0.25 to 2.0% (w/w), or from about 0.5 to 1.0% (w/w). In these, and possibly other amounts, gadusol suitably can provide a safe and effective sunscreen boosting effect when combined with sunscreen active ingredients. […] To summarize these safety tests, the cellular toxicity of gadusol was compared to that of a common sunscreen ingredient, oxybenzone. Vero E6 fibroblasts were used to evaluate toxicity. […] Toxicity towards E. coli was also not found.

Ames Test = type: cell-based
[1] = Folin-Ciocalteu antioxidant capacity; settings: about 0.3 to 10 mg/ml
[2] = tested on: human skin (subject's back); assay: In vivo SPF determination (FDA 21 CFR 201.327, MEDp/MEDu)
Source text: SPF can be measured in vivo according to the methodology set out in FDA 2011 Final Rule issued on Jun. 17, 2011, by the Federal Register. This method is very similar to the ISO 24444:2010 method used to measure SPF in the EU, as well as other countries. In fact, both methods are based on the International Sun Protection Factor (SPF) test method, COLIPA: Bruxelles, Belgium, 2006. The slight differences between the ISO and FDA methods are understood to generate no meaningful difference in the results. […] The main differences between the methods are the following: the calibration times of the UV source (each 12 months for the FDA, each 18 months for the ISO); the reference sunscreen products (P2 for the FDA and P2, P3 or P7 for the ISO); progressions of exposure times used. The disclosures of each of these in vivo SPF testing methods are incorporated herein their entirety by this reference.
The product is then labeled with the appropriate SPF value indicating the amount of sunburn protection provided by the product.
An in vivo SPF determination was conducted according to FDA, 21 CFR Sec. 201.327, subpart (i), SPF Test Procedure, Sunscreen Drug Products for Over-the-Counter Human Use, Final Monograph, Federal Register, Vol. 76, No. 117, Jun. 17, 2011, the disclosure of which is incorporated herein in its entirety by this reference. […]
For a baseline value, a series of 5 UV radiation doses expressed as Joules/square meter, increasing in 25% increments, was administered to two unprotected separate locations on each test subject's back, just below the shoulder blades and above the belt-line, to determine the initial unprotected MED (MEDu).
On Day 2, subjects returned to the testing laboratory within 16 to 24 hours following completion of the MEDu doses for evaluation of their responses, and to determine each subject's unprotected MED (MEDu). A subject's Minimal Erythemal Dose (MED) was the quantity of erythema effective energy, or dose corresponding to the first site that produced the first unambiguous erythema reaction with well-defined borders. […]

Vero E6 fibroblasts = assay: Cellular toxicity compared to oxybenzone; type: cell-based
Source text: as §1

erythrocytes = assay: Cell-based antioxidant protection in erythrocytes (CAP-e) assay
Experimental: The cell-based antioxidant protection in erythrocytes (CAP-e) assay (Honzel et. al., 2008, and Jensen G S. Cell-based antioxidant protection assay, also disclosed in U.S. Pat. No. 8,465,988, incorporated herein in its entirety by this reference) was used. This testing was selected to measure antioxidant power but, in addition, the method ensures that the antioxidant agent crosses the cell's lipid boundary layer so that only intracytoplasmic activity is measured. […] The tested concentrations for both gadusol and the porphyra-334 ranged from 0.001 to 3.33 mg/mL.

[3] = In vitro SPF determination on VitroSkin, absorbance scan 290-400 nm; type: physicochemical
Experimental: SPF can also be evaluated using an in vitro method that utilizes a synthetic/simulated skin as a test substrate. In this regard, VitroSkin® is an advanced testing substrate that effectively mimics the surface properties of human skin. It has been formulated to have topography, pH, critical surface tension, chemical reactivity and ionic strength that is similar to human skin.
SPF was also evaluated using an in vitro method that utilizes a synthetic/simulated skin as a test substrate. In this regard, VitroSkin® is an advanced testing substrate that effectively mimics the surface properties of human skin. It has been formulated to have topography, pH, critical surface tension, chemical reactivity and ionic strength that is similar to human skin. The procedure for in vitro testing was conducted according to a standard protocol. For testing, the test product was applied in a known amount to the substrate at an application density of 2 mg/cm^2. The in vitro SPF scores were determined using a Labsphere UV-1000 Ultraviolet Transmittance Analyzer. Spectral scans of absorbance of the artificial skin treated with a sample sunscreen formulation were performed in the UV region of 290-400 nm. The in vitro SPF was then calculated using the absorbance scan results. At least 5 in vitro SPF values were recorded for each example formulation and the averages calculated for reporting.

[4] = Stability of aqueous gadusol under acidic conditions, spectrophotometric at 296 nm; type: physicochemical
Experimental: Yet further, the inventors have determined that the stability of aqueous gadusol can be improved when stored under acidic conditions. For example, 90% gadusol activity can be retained after 90 days at pH 2.5, where the concentration of gadusol is determined spectrophotometrically at 296 nm where it has an extinction coefficient of 21,800 M^−1cm^−1. A standardized concentration curve can be used to determine an amount of gadusol in a volume sampled from a test solution at various time periods. Therefore, storage under acidic conditions may be useful for stabilizing gadusol generally, e.g., prior to introduction into a topical formulation. Combining gadusol with another antioxidant may be useful for extending the shelf life or stability of gadusol in a topical formulation.

E. coli = assay: Toxicity towards E. coli; type: cell-based
Source text: as §1

| Structure (SMILES) | toxicity in the comet assay (Comet assay) | mutagenicity (Ames Test) | antioxidant power versus mycosporine compound from nori seaweed (porphyra-334) [1] | in vivo SPF relative to SPF conferred by 10% ZnO alone ([2]; 0.5% gadusol (w/w) in 10% ZnO formulation) | in vivo SPF relative to SPF conferred by 10% ZnO alone ([2]; 0.75% gadusol (w/w) in 10% ZnO formulation) [times] | in vivo SPF relative to SPF conferred by 10% ZnO alone ([2]; 1.0% gadusol (w/w) in 10% ZnO formulation) [times] | cellular toxicity (Vero E6 fibroblasts) | antioxidant activity (erythrocytes; 0.133 mg/ml) | antioxidant activity versus porphyra-334 (erythrocytes; about 1 mg/ml) | in vitro SPF activity of gadusol by itself, formulation matrix (1.1) subtracted ([3]; 0.25-0.5% gadusol, no ZnO) | greater SPF when added to composition containing 10% ZnO ([3]; 0.5% (w/w) gadusol, in vitro) [%] | in vitro absorbance on addition to 10% ZnO sunscreen formulation ([3]; 0.5% gadusol, about 290 to about 325 nm, FIG. 6) | gadusol activity retained ([4]; aqueous, after 90 days at pH 2.5) [%] | extinction coefficient ([4]; at 296 nm) | toxicity towards E. coli (E. coli) | interference with the protective action of gadusol when combined (erythrocytes; gadusol and porphyra-334 combined) |
| --- | --- | --- | --- | --- | --- | --- | --- | --- | --- | --- | --- | --- | --- | --- | --- | --- |
| COC1=C(O)CC(O)(CO)C(O)C1=O (stereo not shown) [gadusol] | nor was it toxic | not to be mutagenic | substantially equivalent | about 1.35 times | ~1.51 | ~2.0 | less toxic | Some in vivo antioxidant activity | significantly more active | 2.5-2.8 SPF units | ~50 | significantly more absorbance | 90 | 21,800 M^−1cm^−1 | not found | – |
| COC1=C(NCC(=O)O)C[C@@](O)(CO)CC1=N[C@H](C(=O)O)[C@@H](C)O [porphyra-334, reference compound] | – | – | – | – | – | – | – | – | – | – | – | – | – | – | – | did not interfere |
